Values after ≈ are worked out from the molar mass of the structure shown.
Key:
in vitro [1] = settings: human
[2] = tested on: NCI-H187 (human small-cell lung cancer) cells; settings: maximum tested concentration 50 µg/ml
[3] = tested on: MCF-7 (human breast cancer) cells; settings: maximum tested concentration 50 µg/ml
[4] = tested on: Bacillus cereus ATCC 11778; assay: Antibacterial optical density microplate assay, B. cereus; assay type: cell-based; settings: for Anti-Bacillus cereus (MIC, µg/ml): B. cereus ATCC 11778, maximum tested concentration 50 µg/ml; for MIC: Bacillus cereus, ATCC11778, read-out: Anti-Bacillus cereus (MIC, µg/ml)
Vero cells = settings: non-cancerous, maximum tested concentration 50 µg/ml
Escherichia coli = settings: literature value; cited from earlier work
[5] = tested on: Staphylococcus aureus ATCC 29213; assay: Antibacterial optical density microplate assay, S. aureus; assay type: cell-based; settings: ATCC29213, read-out: Anti-Staphylococcus aureus (MIC, µg/ml)
in vitro [6] = settings: human (MCF-7, NCI-H187); African green monkey (Vero)
Mycobacterium bovis = settings: cited from earlier work
S. aureus = settings: literature value; cited from earlier work
in vitro [7] = settings: human; remark: listed apart in the source

SMILES	Cytotoxicity (IC50, µM) MCF-7 [3]	Anti-Bacillus cereus (MIC, µg/ml) [4]	Cytotoxicity (IC50, µM) Vero (Vero cells)	MIC [5]	MIC [4]	further results
Cc1c2ccncc2c(C)c2c1[nH]c1ccccc12 [Ellipticine, reference compound]						IC50 (in vitro [1]): 11.8 µM
COc1cccc(C(N)=O)c1O [Compound 6, 2-hydroxy-3-methoxybenzamide]	Inactive	Inactive	Inactive			Cytotoxicity (IC50, µM) NCI-H187 [2]: Inactive
CC(=O)Nc1c2sscc-2n(C)c1=O [Compound 1, thiolutin]				3.13 µg/mL (≈ 13.7 µM)	1.56 µg/mL (≈ 6.83 µM)	MIC against Escherichia coli (Escherichia coli): 6.25 µg/mL (≈ 27.4 µM); IC50 (in vitro [6]): 0.35 to 5.61 µM; MIC against Mycobacterium bovis (Mycobacterium bovis): 0.313 µg/mL (≈ 1.37 µM); MIC against S. aureus (S. aureus): 3.125 µg/mL (≈ 13.7 µM)
NC(=O)c1cccc(O)c1O [Compound 5, 2,3-dihydroxybenzamide]	Inactive	Inactive	Inactive			IC50 (in vitro [1]): 33.8 µM
CO[C@H]1/C=C/O[C@@]2(C)Oc3c(C)c(O)c4c(O)c(c(/C=N/N5CCN(C)CC5)c(O)c4c3C2=O)NC(=O)/C(C)=C\C=C\[C@H](C)[C@H](O)[C@@H](C)[C@@H](O)[C@@H](C)[C@H](OC(C)=O)[C@@H]1C [Rifampicin, reference compound]				0.04 to 0.56 µg/mL (≈ 0.0486 to 0.68 µM)	0.16 to 0.63 µg/mL (≈ 0.194 to 0.766 µM)	
CN[C@H](CC(C)C)C(=O)N[C@H]1C(=O)N[C@@H](CC(N)=O)C(=O)N[C@H]2C(=O)N[C@H]3C(=O)N[C@H](C(=O)N[C@H](C(=O)O)c4cc(O)cc(O)c4-c4cc3ccc4O)[C@H](O)c3ccc(c(Cl)c3)Oc3cc2cc(c3O[C@@H]2O[C@H](CO)[C@@H](O)[C@H](O)[C@H]2O[C@H]2C[C@](C)(N)[C@H](O)[C@H](C)O2)Oc2ccc(cc2Cl)[C@H]1O [Vancomycin, reference compound]				4 µg/mL (≈ 2.76 µM)	1 to 2 µg/mL (≈ 0.69 to 1.38 µM)	
CC/C(=C(\c1ccccc1)c1ccc(OCCN(C)C)cc1)c1ccccc1 [Tamoxifen]						IC50 (in vitro [7]): 43.4 µM
Nc1cccc2c(=O)[nH]c(=O)oc12 [Compound 3, 8-amino-2 H-benz[e][1,3]oxazine-2,4(3 H)-dione]	Inactive	Inactive	Inactive			Cytotoxicity (IC50, µM) NCI-H187 [2]: Inactive

Reference: article PMC12339935 (Scientific Reports, 2025)
